One compound from patent US12637479B2, “Low energy gap small molecule material and organic optoelectronic device using the same” (Raynergy Tek Incorporation, priority 2021, dated 2026) can be followed below.

Holding throughout (type): physicochemical
A short description of data set [1]: UV-Vis-NIR absorption spectra in chloroform solution. Here is the method: (§1) Please refer to FIG. 2 to FIG. 4 and Table 1.
(§2) The highest occupied molecular orbital (HOMO) is calculated from HOMO=−|4.71÷E^xo−E^ferroncene|eV. The optical energy gap

Data set [2] is described as follows: UV-Vis-NIR absorption spectra in film, optical energy gap from absorption onset. Here is the method:
as §1, §2
[formula] of the material is known from the absorption onset position
(§3) [formula] of the UV-Vis-NIR absorption spectrum in film state. The lowest unoccupied molecular orbital (LUMO) is calculated from LUMO=HOMO+Eg eV.

Data set [3] in a line: Energy levels by cyclic voltammetry (HOMO, LUMO). Here is the method:
as §2, §3

The nature of data set [4]: Solubility measurement in o-xylene. Particulars: 8 mg sample in 1 mL o-xylene. An excerpt:
Among them, “O” means complete dissolution, and “X” means incomplete dissolution. […] In the art, it is an industry trend to use non-halogenated green solvents. Green solvents generally come from renewable resources or can be degraded by soil organisms or other substances, have a short half-life, and are easily decayed into low-toxic and non-toxic substances. Therefore, green solvents are generally less harmful to biological health and the environment than general solvents that are easily chlorinated or highly toxic. Green solvents are also called environmentally friendly solvents. O-xylene is a non-halogen green solvent.

With `CCCCCCCCCCCCc1cc(-c2c3c(c(-c4cc(CCCCCCCCCCCC)c(-c5cc6c(s5)-c5sc(-c7sc(-c8c9c(c(-c%10cc(CCCCCCCCCCCC)c(/C=C%11\C(=O)c%12cc(F)c(F)cc%12C%11=C(C#N)C#N)s%10)c%10nn(CC(CC)CCCC)nc8%10)N=S=N9)cc7CCCCCCCCCCCC)cc5C6(c5cc(CCCCCC)cc(CCCCCC)c5)c5cc(CCCCCC)cc(CCCCCC)c5)s4)c4nn(CC(CC)CCCC)nc24)N=S=N3)sc1/C=C1\C(=O)c2cc(F)c(F)cc2C1=C(C#N)C#N` (centres unmarked) [Q4], the “λsoln^max” value in data set [1] (chloroform solution) came to 965 nm. For the same compound, the ε in data set [1] (maximum absorption coefficient) is recorded as 1.41 10^5 cm^−1 M^−1. Besides, in data set [2] (film), the “λfilm^max” value stood at 1029 nm and the “λfilm^onset” value is 1455 nm. Besides, the “Eg^opt” value in data set [2] (from absorption onset in film state) was found to be 0.85 eV. The LUMO in data set [3] (LUMO=HOMO+Eg) was −4.32 eV. Further, the HOMO in data set [3] (cyclic voltammetry) is listed as −5.17 eV. Further, the Solubility result in data set [4] is listed as “◯”.
